Measured values published in US20250206730A1 (AUTOTELIC BIO INC., priority 2022, published 2025).

Key:
[1] = system: TGF-β signaling; assay: Assay for evaluating cellular inhibition of TGF-β signaling, 4T1 (SBE-luc2P) luciferase reporter; format: cell-based; details: Mus musculus, 4T1, 4T1 (SBE-luc2P) transient pool, 0.2% FBS, 2 h pre-treatment, TGF-β1 2 ng/mL 24 h; read-out: IC50 4T1 Cell
How it was run: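 Luminescence from SMAD-binding-element luciferase was measured after 24 h of 2 ng/mL TGF-β1 at 37 °C, following 2 h compound pre-treatment. HEK293 stable reporter cells were used at 2.5×10^4/well in 0.5% FBS (~80% confluent); the 4T1 SBE-luc2P transient pool at 6×10^3/well in 0.2% FBS (~60% confluent).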

[2] = target: T1, ALK5 kinase (Homo sapiens, UniProt P36897); assay: LanthaScreen Eu Kinase Binding Assay; details: Kinase Tracer 178, Eu-anti-GST Antibody, read-out: IC50 Enzyme
T1 sequence (P36897 34-503): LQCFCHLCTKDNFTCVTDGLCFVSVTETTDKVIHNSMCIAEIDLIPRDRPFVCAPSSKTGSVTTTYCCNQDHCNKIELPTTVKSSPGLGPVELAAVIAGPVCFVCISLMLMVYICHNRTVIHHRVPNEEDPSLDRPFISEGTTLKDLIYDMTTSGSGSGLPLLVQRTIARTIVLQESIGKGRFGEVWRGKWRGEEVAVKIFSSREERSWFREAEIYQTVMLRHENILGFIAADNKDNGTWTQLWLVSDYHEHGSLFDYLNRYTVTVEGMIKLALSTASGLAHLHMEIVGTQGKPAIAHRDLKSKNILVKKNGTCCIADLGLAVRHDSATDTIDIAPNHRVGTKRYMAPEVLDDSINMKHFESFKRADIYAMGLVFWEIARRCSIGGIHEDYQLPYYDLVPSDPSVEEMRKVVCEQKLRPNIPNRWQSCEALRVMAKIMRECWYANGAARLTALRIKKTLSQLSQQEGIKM
How it was run: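 Tracer-displacement TR-FRET: after 30 min RT compound–kinase preincubation, Eu-labelled anti-GST antibody plus Kinase Tracer 178 were incubated 60 min at RT. Binding was read as a lower 665 nm/615 nm emission ratio (excitation 340 nm).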

SMILES | IC50 [1] [nM] | IC50 [2] [nM]
CNC(=O)c1ccc(Nc2cc(Oc3sc(C(F)(F)F)nc3-c3ccccc3)ccn2)nc1 [A-150, N-Methyl-6-((4-((4-phenyl-2-(trifluoromethyl)thiazol-5-yl)oxy)pyridin-2-yl)amino)nicotinamide] | < 100 | < 100
Cc1cccc(-c2nc(C(C)C)sc2Oc2ccnc(Nc3ccc(C(N)=O)cn3)c2)n1 [A-288, 6-((4-((2-Isopropyl-4-(6-methylpyridin-2-yl)thiazol-5-yl)oxy)pyridin-2-yl)amino)nicotinamide] | < 100 | < 100
CN(C)c1nc(-c2ccccc2)c(Oc2ccnc(Nc3ccc(C(=O)O)cc3)c2)s1 [A-168, 4-((4-((2-(Dimethylamino)-4-phenylthiazol-5-yl)oxy)pyridin-2-yl)amino)benzoic acid] | < 100 | < 100
O=C(NO)c1ccc(Nc2cc(Oc3sc(C4CC4)nc3-c3ccccc3)ccn2)nc1 [A-138, 6-((4-((2-Cyclopropyl-4-phenylthiazol-5-yl)oxy)pyridin-2-yl)amino)-N-hydroxynicotinamide] | < 100 | < 100
O=C(O)c1ccc(Nc2cc(Oc3sc(C4CC4)nc3-c3ccccc3)ccn2)nc1 [A-132, 6-((4-((2-Cyclopropyl-4-phenylthiazol-5-yl)oxy)pyridin-2-yl)amino)nicotinic acid] | < 100 | < 100
CCc1nc(-c2cccc(C)n2)c(Oc2ccnc(Nc3cccc(C(N)=O)n3)c2)s1 [A-255, 6-((4-((2-Ethyl-4-(6-methylpyridin-2-yl)thiazol-5-yl)oxy)pyridin-2-yl)amino)picolinamide] | < 100 | < 100
CNC(=O)c1ccc(Nc2cc(Oc3sc(C(C)C)nc3-c3ccccc3)ccn2)cc1 [A-229, 4-((4-((2-Isopropyl-4-phenylthiazol-5-yl)oxy)pyridin-2-yl)amino)-N-methylbenzamide] | > 100 | < 100
Cc1nc(-c2ccccc2)c(Oc2ccnc(Nc3cccc(S(C)(=O)=O)c3)c2)s1 [A-70, 4-((2-Methyl-4-phenylthiazol-5-yl)oxy)-N-(3-(methylsulfonyl)phenyl)pyridin-2-amine] | < 100 | < 100
CS(=O)(=O)NC(=O)c1ccc(Nc2cc(Oc3sc(C4CC4)nc3-c3ccccc3)ccn2)nc1 [A-140, 6-((4-((2-Cyclopropyl-4-phenylthiazol-5-yl)oxy)pyridin-2-yl)amino)-N-(methylsulfonyl)nicotinamide] | > 100 | < 100
CCc1nc(-c2cccc(C)n2)c(Oc2ccnc(Nc3cccc(C(=O)O)c3)c2)s1 [A-257, 3-((4-((2-Ethyl-4-(6-methylpyridin-2-yl)thiazol-5-yl)oxy)pyridin-2-yl)amino)benzoic acid] | < 100 | < 100
CCc1nc(-c2cccc(C)n2)c(Oc2ccnc(Nc3cncc(C(N)=O)c3)c2)s1 [A-261, 5-((4-((2-Ethyl-4-(6-methylpyridin-2-yl)thiazol-5-yl)oxy)pyridin-2-yl)amino)nicotinamide] | < 100 | < 100
CCc1nc(-c2cccc(C)n2)c(Oc2ccnc(Nc3cncc(C(=O)O)c3)c2)s1 [A-260, 5-((4-((2-Ethyl-4-(6-methylpyridin-2-yl)thiazol-5-yl)oxy)pyridin-2-yl)amino)nicotinic acid] | > 100 | < 100

Results, then the molecule that gave them:

IC50 [1] [nM] | IC50 [2] [nM] | SMILES
< 100 | < 100 | CN(C)c1nc(-c2ccccc2)c(Oc2ccnc(Nc3ccc(C(=O)O)cn3)c2)s1 [A-165, 6-((4-((2-(Dimethylamino)-4-phenylthiazol-5-yl)oxy)pyridin-2-yl)amino)nicotinic acid]
< 100 | < 100 | O=C(O)c1ccc(Nc2cc(Oc3sc(C(F)(F)F)nc3-c3ccccc3)ccn2)cc1 [A-152, 4-((4-((4-Phenyl-2-(trifluoromethyl)thiazol-5-yl)oxy)pyridin-2-yl)amino)benzoic acid]
< 100 | < 100 | CCc1nc(-c2cccc(C)n2)c(Oc2ccnc(Nc3ccc(C(=O)O)cn3)c2)s1 [A-252, 6-((4-((2-Ethyl-4-(6-methylpyridin-2-yl)thiazol-5-yl)oxy)pyridin-2-yl)amino)nicotinic acid]
< 100 | < 100 | Cc1cccc(-c2nc(C(C)C)sc2Oc2ccnc(Nc3cccc(S(N)(=O)=O)c3)c2)n1 [A-287, 3-((4-((2-Isopropyl-4-(6-methylpyridin-2-yl)thiazol-5-yl)oxy)pyridin-2-yl)amino)benzenesulfonamide]
> 100 | < 100 | CN(C)c1nc(-c2ccccc2)c(Oc2ccnc(Nc3cccc(S(N)(=O)=O)c3)c2)s1 [A-154, 3-((4-((2-(Dimethylamino)-4-phenylthiazol-5-yl)oxy)pyridin-2-yl)amino)benzenesulfonamide]
> 100 | < 100 | CCc1nc(-c2ccccc2)c(Oc2ccnc(Nc3cccc(C(=O)O)c3)c2)s1 [A-194, 3-((4-((2-Ethyl-4-phenylthiazol-5-yl)oxy)pyridin-2-yl)amino)benzoic acid]
< 100 | < 100 | CN(C)c1nc(-c2ccccc2)c(Oc2ccnc(Nc3cccc(C(N)=O)c3)c2)s1 [A-155, 3-((4-((2-(Dimethylamino)-4-phenylthiazol-5-yl)oxy)pyridin-2-yl)amino)benzamide]
> 100 | < 100 | CCc1nc(-c2cccc(C)n2)c(Oc2ccnc(Nc3cc(C(=O)O)ccn3)c2)s1 [A-266, 2-((4-((2-Ethyl-4-(6-methylpyridin-2-yl)thiazol-5-yl)oxy)pyridin-2-yl)amino)isonicotinic acid]
< 100 | < 100 | Cc1nc(-c2ccccc2)c(Oc2ccnc(Nc3cccc(C(C)(C)O)c3)c2)s1 [A-61, 2-(3-((4-((2-Methyl-4-phenylthiazol-5-yl)oxy)pyridin-2-yl)amino)phenyl)propan-2-ol]
> 100 | < 100 | NC(=O)c1ccc(Nc2cc(Oc3sc(N)nc3-c3ccccc3)ccn2)cc1 [A-5, 4-((4-((2-Amino-4-phenylthiazol-5-yl)oxy)pyridin-2-yl)amino)benzamide]
> 100 | < 100 | CCc1nc(-c2ccccc2)c(Oc2ccnc(Nc3ccc(C(C)(C)O)nc3)c2)s1 [A-187, 2-(5-((4-((2-Ethyl-4-phenylthiazol-5-yl)oxy)pyridin-2-yl)amino)pyridin-2-yl)propan-2-ol]
< 100 | < 100 | NC(=O)c1cccc(Nc2cc(Oc3sc(C4CC4)nc3-c3ccccc3)ccn2)c1 [A-117, 3-((4-((2-Cyclopropyl-4-phenylthiazol-5-yl)oxy)pyridin-2-yl)amino)benzamide]
> 100 | < 100 | Nc1nc(-c2ccccc2)c(Oc2ccnc(Nc3cccc(C(=O)O)c3)c2)s1 [A-40, 3-((4-((2-Amino-4-phenylthiazol-5-yl)oxy)pyridin-2-yl)amino)benzoic acid]
< 100 | < 100 | Cc1cccc(-c2nc(C)sc2Oc2ccnc(Nc3cccc(CC#N)c3)c2)n1 [A-304]
< 100 | < 100 | NC(=O)c1ccc(Nc2cc(Oc3sc(C4CC4)nc3-c3ccccc3)ccn2)cc1 [A-119, 4-((4-((2-Cyclopropyl-4-phenylthiazol-5-yl)oxy)pyridin-2-yl)amino)benzamide]
